Key:
[1] = system: P. aeruginosa PAO1 biofilms; experiment: Glass slide biofilm assay for observation of eDNA release; format: cell-based; conditions: ABTG medium containing 25 μM G1, 24 h, PI staining
Procedure: Glass Slide Biofilm Assay for Observation of eDNA Release. The glass slide biofilm assay was performed (Liu et al. 2010 Synergistic activities of an efflux pump inhibitor and iron chelators against Pseudomonas aeruginosa growth and biofilm formation. Antimicrob Agents Chemother 54:3960-3963). Briefly, gfp-tagged P. aeruginosa PAO1 biofilms were cultivated in 50 ml BD falcon tubes containing 15 ml ABTG medium. A sterile 24 mm×60 mm glass cover slide was inserted into each falcon tube for supporting biofilm growth. G1 (10 μm) was added into the biofilm medium to examine its impact on P. aeruginosa PAO1 biofilm formation. DMSO was added alone to the medium as control. Biofilms were incubated at 37° C. without shaking. 2 μM propidium iodide (Sigma-Aldrich) was added to biofilm cultures to stain extracellular DNA for 5 min after 24-hour growth. After that, biofilm attached glass slides were observed by confocal laser scanning microscopy (CLSM).

[2] = system: P. aeruginosa PAO1 strain; experiment: iTRAQ-based quantitative proteomic analysis; format: cell-based; conditions: 25 μM G1
Procedure: iTRAQ-Based Proteomics Analyses for G1. Isobaric tag for relative and absolute quantitation (iTRAQ)-based proteomic analysis was used to study the changes in protein expression of the P. aeruginosa PAO1 strain in response to the addition of 25 μM of G1. Proteomics experiments were performed at the Proteomic Core Facility of the Biological Research Center, School of Biological Sciences, Nanyang Technological University, Singapore. A full description of the proteomics workflow is given below.
Protein preparation and digestion. The P. aeruginosa PAO1 strain was grown in ABTG media. Sub-lethal concentrations of G1 (25 μM) were added to independent P. aeruginosa PAO1 cultures respectively. Cultures were grown in LB medium at 37° C. with shaking until late log phase (OD 600 nm=1.0) before harvesting. After harvesting, cell pellets were washed with 1×PBS and resuspended in 2 ml of lysis buffer containing 0.5M TEAB and 0.1M SDS. The cells were ruptured by sonication, and the cell debris was removed by centrifugation at 4° C. at 16000×g for 15 min. 200 μg of proteins from different growth conditions were dissolved in equal volume of sample buffer (Invitrogen) supplemented with 0.5% 2-mercaptoethanol and denatured by boiling at 95° C. for 5 min. 1D gel electrophoresis was carried out using 10% SDS-PAGE for in-gel digestion.
Proteins were first reduced using 5 mM Tris-(2-carboxyethyl)phosphine (TCEP) for 1 h at 60° C., followed by blocking of cysteine residues by 10 mM methyl methanethiosulfate (MMTS) for 30 min at room temperature in the dark. Trypsin was added at a ratio of 1:50 (trypsin/sample). It was then incubated at 37° C. overnight. The tryptic peptides were extracted by 50% ACN/5% Acetic Acid from gel for 3 times and were desalted using Sep-Pak C18 cartridges (Waters, Milford, Mass.) and dried in a SpeedVac (Thermo Electron, Waltham, Mass.). All chemicals were purchased from Sigma-Aldrich unless stated otherwise.
iTRAQ labeling. The iTRAQ labeling of the tryptic peptides was performed using 4-plex iTRAQ reagent kit (Applied Biosystems, Foster City, Calif.), according to the manufacturers protocol. 200 μg of peptides from each condition were individually labeled with respective isobaric tags: control sample with 114, and the G1 treated sample with 115. After 2 h incubation, the samples were quenched by water, desalted using C18 solid phase extraction cartridge, and then vacuum-centrifuged to dryness. […] The HPLC chromatograms were recorded at 280 nm and fractions were collected online using automated fraction collector. 20 fractions were collected and concentrated using vacuum centrifuge and reconstituted in 3% ACN with 0.1% formic acid for LC-MS/MS analysis.
LC-MS/MS. The peptides were separated and analyzed on a home-packed nanobore C18 column (15 cm×75 μm; Reprosil-Pur C18-AQ, 3 μm, Dr Maisch, Germany) with a Picofritnanospray tip (New Objectives, Woburn, Mass., USA) on a Tempo™ nano-MDLC system coupled with a QSTAR® Elite Hybrid LC-MS/MS system (Applied Biosystems). Peptides from each fraction were analyzed in triplicate by LC-MS/MS over a gradient of 90 min. The flow rate of the LC system was set to a constant 300 nl/min. Data acquisition in QSTAR Elite was set to positive ion mode using Analyst® QS 2.0 software (Applied Biosystems). MS data was acquired in positive ion mode with a mass range of 300-1600 m/z. Peptides with +2 to +4 charge states were selected for MS/MS. For each MS spectrum, the three most abundant peptides above a five-count threshold were selected for MS/MS and dynamically excluded for 30 s with a mass tolerance of 0.03 Da. Smart information-dependent acquisition was activated with automatic collision energy and automatic MS/MS accumulation. The fragment intensity multiplier was set to 20 and maximum accumulation time was 2 s.
Data analysis. […]

N=c1[nH]c(=O)c2nn[nH]c2[nH]1 [Compound G1, 5-imino-4,6-dihydro-3H-1,2,3-triazolo[5,4-d]pyrimidin-7-one]
extracellular DNA (eDNA) in biofilms [1]: less eDNA was observed
abundance of protease IV (PA4175), 115:114 [2]: 0.29
change in abundance of pyoverdine chromophore synthetase (pvdL; PA2424) [2]: −0.73 fold
change in abundance of pyoverdine synthetase D (pvdD; PA2399) [2]: −0.89 fold
elastase (lasB; PA3724) in the proteomics result [2]: not identified as down-regulated
number of proteins with abundance upregulated ([2]; 115:114 score at least 1.5): 19
number of proteins with abundance down-regulated ([2]; 115:114 score below 0.66): 27
number of proteins significantly affected ([2]; p-value (115:114) cut-off 0.05): 46

— patent US9988380B2, “Quorum sensing inhibitors” (priority 2013, dated 2018)
